Results: PubChem BioAssay (NCI)
“And” between values parts separate entries of the source, which are not always exact repeats. Identical values can stand only once.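 Where inhibition never reached the appropriate level, the endpoint shown equals the highest concentration tested. Otherwise, values were interpolated linearly from a five-concentration, 48-hour dose response in 96-well plates. GI50: concentration for 50% inhibition of growth. TGI denotes the concentration required for complete inhibition of growth.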

What was measured:
Experiment in all cases: NCI anticancer screen, dose series, 48 h
ACHN renal = test system: ACHN renal
CCRF-CEM leukemia = test system: CCRF-CEM leukemia
HCT-15 colon = test system: HCT-15 colon
HL-60(TB) leukemia = test system: HL-60(TB) leukemia
KM12 colon = test system: KM12 colon
MDA-MB-435 = test system: MDA-MB-435
NCI-H460 lung = test system: NCI-H460 lung
NCI-H522 lung = test system: NCI-H522 lung
SW-620 colon = test system: SW-620 colon
U251 CNS = test system: U251 CNS

Compound | GI50 (ACHN renal) [µM] | TGI (ACHN renal) | GI50 (CCRF-CEM leukemia) [µM] | TGI (CCRF-CEM leukemia) | GI50 (HCT-15 colon) [µM] | TGI (HCT-15 colon) | GI50 (HL-60(TB) leukemia) [µM] | TGI (HL-60(TB) leukemia) | GI50 (KM12 colon) [µM] | TGI (KM12 colon) | GI50 (MDA-MB-435) [µM] | TGI (MDA-MB-435) | GI50 (NCI-H460 lung) [µM] | TGI (NCI-H460 lung) | GI50 (NCI-H522 lung) [µM] | TGI (NCI-H522 lung) [µM] | GI50 (SW-620 colon) [µM] | TGI (SW-620 colon) | GI50 (U251 CNS) [µM] | TGI (U251 CNS)
Cc1cc(I)cc(CNCCCN2CCSCC2)c1O | 17.5 | 33.8 µM | 10.4 | 39.9 µM | 17.7 | 35.9 µM | 15.8 | 35.8 µM | 16.9 | 35.9 µM | 13.6 | 26.6 µM | 14.3 | 29.5 µM | 18.4 | 36.5 | 16.5 | 30.3 µM | 16.4 | 31 µM
O=c1oc2ccc(F)cc2c(=O)n1-c1ccc(F)cc1F | 2.71 | 8.63 µM | 3.95 | 67.4 µM | 3.36 | 17.5 µM | 2.68 | 7.81 µM | 3.38 | 14 µM | 3.21 | 14.6 µM | 3.42 | 62.4 µM | 2.61 | 12.3 | 3.33 | 80.6 µM | 3.26 | 38.8 µM
O=C(O)Cn1ccc(=O)c2ccc([N+](=O)[O-])cc21 |  | > 100 µM |  | > 100 µM |  | > 100 µM |  | > 100 µM |  | > 100 µM |  | > 100 µM |  | > 100 µM |  | > 100 |  | > 100 µM |  | > 100 µM
O=NN(Cc1ccc(Cl)cc1)C(C(=O)O)c1ccccc1 (configuration not stated) |  | > 100 µM |  | > 100 µM |  | > 100 µM |  | > 100 µM |  | > 100 µM |  | > 100 µM |  | > 100 µM |  | > 100 |  | > 100 µM |  | > 100 µM
COc1cccc(/C=N/NC(=O)c2ccccc2Nc2ccnc(C(F)(F)F)c2)c1O | 0.279 | > 100 µM | 0.115 | 2.02 µM | 0.201 | > 100 µM | 0.215 | 0.677 µM | 0.457 | > 56.4 µM | 1.26 | > 100 µM | 0.262 | 8.26 µM | 0.521 | 46.1 | 0.918 | > 70.1 µM | 0.449 | > 100 µM
CC1OC(n2cc(F)c(=O)[nH]c2=O)CCC1O (configuration not stated) |  | > 100 µM |  | > 100 µM |  | > 100 µM |  | > 100 µM |  | > 100 µM |  | > 100 µM |  | > 100 µM |  | > 100 |  | > 100 µM |  | > 100 µM
O=C(CN1CCOCC1)Nc1ccc(Cn2nnc3c2C(=O)c2nnn(Cc4ccc(NC(=O)CN5CCOCC5)cc4)c2C3=O)cc1 | 4.01 | 20.2 µM | 0.233 | 1.6 µM | 7.42 | > 100 µM | 0.204 | 0.61 µM | 0.959 | 5.23 µM | 0.177 | 0.329 µM | 0.378 | 5.48 µM | 0.191 | 0.587 | 0.366 | 1.75 µM | 0.305 | 0.942 µM
CCOC(=O)/C=C(/C(=O)OCC)n1cc(Cl)c(=O)n(CC(=O)OCC)c1=O | 2.55 | 7.35 µM and 6.22 µM | 2.12 | 1.13 µM and 5.65 µM | 19 | 10.5 µM and 40.1 µM | 11.2 | 9.97 µM and 37.2 µM | 21.2 | > 25 µM and 43.8 µM |  | 9.95 µM and 36.6 µM | 35.1 | 25 µM and > 100 µM |  | 2.88 | 3.04 | 4.45 µM and 12.9 µM | 21 | 13.6 µM and 38.9 µM
Cc1nc2cccc([N+](=O)[O-])c2c(NCCCN(C)C)c1C |  | > 100 µM |  | > 75.2 µM |  | > 52.8 µM |  | 17.8 µM |  | > 62.4 µM |  | > 100 µM |  | > 59.6 µM |  | 40.6 |  | > 100 µM |  | > 100 µM
O=C1/C(=C/c2ccc(Cl)cc2Cl)N=C(c2ccccc2)N1Cc1ccco1 | 11.8 | 28 µM | 3.58 | 7.6 µM | 37.7 | > 100 µM | 18.3 | 52.3 µM | 33.7 | > 100 µM | 43.6 | > 100 µM | 26.6 | > 100 µM | 18.9 | 48.4 | 46 | > 100 µM | 20.5 | 40.5 µM
COc1ccc(C2=NN(C(=O)c3cc(OC)c(OC)c(OC)c3)C(c3ccc(C#N)cc3)C2)cc1OC (configuration not stated) | 1.45 | > 66.5 µM | 3.03 | > 100 µM | 1.48 | > 64.8 µM | 1.85 | 6.01 µM | 1.16 | > 27.3 µM | 0.334 | 1.24 µM | 2.01 | > 100 µM | 0.222 | 1.24 | 1.26 | > 100 µM | 1.18 | > 34.6 µM
CC1OC(O[C@H]2C[C@@H](O)[C@]3(CO)[C@H]4[C@H](O)C[C@]5(C)[C@@H](C6=CC(=O)OC6)CC[C@]5(O)[C@@H]4CC[C@]3(O)C2)C(O)C(O)C1O (some centres not stated) | 20.2 | 35.5 µM |  | 52.5 µM | 17.3 | 31.9 µM | 21 | 41.6 µM | 17.8 | 32.3 µM | 19.5 | 38.6 µM | 19.1 | 35.4 µM | 17.8 | 32.5 | 22.5 | 48.7 µM | 18.8 | 33.7 µM
CN(C)CCNc1cc(-c2ccccc2)nc2ccccc12 | 4.42 | 38.9 µM | 4.43 | 37.3 µM | 4.48 | 62.5 µM | 4.58 | 22.3 µM | 4.87 | 27.4 µM | 6.12 | 20.6 µM | 3.5 | 12.8 µM | 8.11 | 27.8 | 3.94 | 21.5 µM | 3.48 | 11.2 µM
C[C@]12CC[C@H](O)CC1=CC[C@@H]1[C@@H]2CC[C@]2(C)C(c3cccnc3)=CC[C@@H]12 | 18.7 | > 100 µM | > 96.6 | > 100 µM | 25.8 | > 100 µM | > 100 | > 100 µM | 76.3 | > 100 µM | 12.2 | > 100 µM | > 100 | > 100 µM | 10.1 | > 100 | > 100 | > 100 µM | 12.3 | > 100 µM
